Laboratory results taken from patent US20230365602A1, “COMPOUND FOR USE IN THE TREATMENT OF PROTOZOAL DISEASES AND PROCESS FOR PRODUCTION OF SAID COMPOUND” (QUADREL S.R.L., priority 2020, published 2023).
Read-outs that look alike come from different tables or passages of the source.

Legend:
hERG channel [1] = molecular target: T1, hERG channel (Homo sapiens, UniProt Q12809)
[2] = in humans; cited from earlier work
hERG channel [3] = molecular target: T1, hERG channel; assay: in vitro
[4] = Human microsomal stability; type: in vitro ADME
Method: (§1) Furthermore, compound 19 is stable in human hepatic microsomes (samples were taken at 0, 5, 15, 30, 45 minutes) (Table 8), while the human plasma stability is 99.7% (samples were taken at 0, 15, 30, 45, 60, 120 minutes).

Human plasma stability = type: in vitro ADME; conditions: samples at 0, 15, 30, 45, 60, 120 minutes
Method: as §1

[5] = system: Salmonella TA98 (frameshift mutations); type: cell-based
Method: The test has been performed in duplicate as separate experiments (Table 9). Two different Salmonella strains were tested; TA98 (frameshift mutations) and TA100 (base pair substitutions, primarily at one of the GC pairs). Values above 15 represent genotoxicity.

[6] = Biodistribution in tissues 72 h after oral gavage; type: in vivo, mice; conditions: for Kp at 72 h / concentration at 72 h: BALB/c (Compound 19), NMRI (miltefosine), mouse; for Kp at 72 h: 72 h after 20 mg/kg oral gavage
Method: Blood samples were collected from the tail vein at 0, 0.5, 0.75, 1, 3, 24 and 72 hours into heparinized tubes. Moreover, biodistribution of the molecule, 72h after administration, was determined in several organs of the treated mice, namely brain, liver, spleen, kidney, heart and bone marrow. […] J Chromatogr B, 865: 55-62) by liquid chromatography mass spectrometry (LC-MS/MS).

[7] = system: L. infantum axenic amastigotes expressing luciferase; assay: In vivo model of infection with L. infantum axenic amastigotes expressing luciferase; conditions: ten consecutive oral treatments with 10 mg/kg, 2 weeks after last treatment
Method: FIG. 4 illustrates the in vivo activity of compounds 18 and 19 in a model of infection with L. infantum axenic amastigotes expressing luciferase (10 consecutive treatments with 10 mg/kg of each compound, evaluated by limiting dilution assay 2 weeks after the last treatment).
In vivo activity of compounds 18 and 19 (ten consecutive oral treatments with 10 mg/kg of each compound, followed by a break of 2 weeks after last treatment), was studied in a model of infection with axenic amastigotes expressing luciferase, essentially as described in (Mendes Costa D. et al, J. Sci Rep. 2019 Dec. 12; 9(1):18989; Tavares J. et al., Methods Mol Biol. 2019; 1971:289-301). (FIG. 4).

T1 sequence (Q12809 whole entry): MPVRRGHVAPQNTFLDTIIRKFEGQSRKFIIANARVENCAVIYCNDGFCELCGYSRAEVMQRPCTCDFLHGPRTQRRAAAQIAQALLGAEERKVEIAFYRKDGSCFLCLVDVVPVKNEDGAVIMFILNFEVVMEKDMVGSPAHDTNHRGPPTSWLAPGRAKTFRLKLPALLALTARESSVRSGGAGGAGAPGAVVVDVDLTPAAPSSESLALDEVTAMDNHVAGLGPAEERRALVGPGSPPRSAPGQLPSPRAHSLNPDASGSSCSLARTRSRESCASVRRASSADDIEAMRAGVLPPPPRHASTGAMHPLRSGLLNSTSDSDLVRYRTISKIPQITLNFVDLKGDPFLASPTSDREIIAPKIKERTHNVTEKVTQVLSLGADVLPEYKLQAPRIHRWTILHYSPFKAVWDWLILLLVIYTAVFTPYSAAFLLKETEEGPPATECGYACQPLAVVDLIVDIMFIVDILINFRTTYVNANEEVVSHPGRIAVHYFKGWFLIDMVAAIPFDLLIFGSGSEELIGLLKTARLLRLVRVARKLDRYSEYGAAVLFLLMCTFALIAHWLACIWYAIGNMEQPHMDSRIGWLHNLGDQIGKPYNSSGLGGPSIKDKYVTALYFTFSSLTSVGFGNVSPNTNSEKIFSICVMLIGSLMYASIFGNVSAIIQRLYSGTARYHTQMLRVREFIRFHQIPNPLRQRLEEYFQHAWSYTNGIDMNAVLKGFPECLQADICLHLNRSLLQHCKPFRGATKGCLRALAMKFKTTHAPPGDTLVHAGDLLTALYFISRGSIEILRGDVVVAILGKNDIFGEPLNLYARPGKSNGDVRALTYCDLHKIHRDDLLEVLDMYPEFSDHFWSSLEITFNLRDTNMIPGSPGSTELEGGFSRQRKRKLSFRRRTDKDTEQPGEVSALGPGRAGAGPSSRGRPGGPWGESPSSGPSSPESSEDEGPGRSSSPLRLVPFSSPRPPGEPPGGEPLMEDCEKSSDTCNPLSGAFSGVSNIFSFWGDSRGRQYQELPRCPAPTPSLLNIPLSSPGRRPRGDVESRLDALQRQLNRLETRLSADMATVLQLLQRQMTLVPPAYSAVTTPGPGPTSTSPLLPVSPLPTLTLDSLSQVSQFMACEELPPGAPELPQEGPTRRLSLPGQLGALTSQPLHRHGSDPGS

CCCCCCCCCCCCCCCCOP(=O)([O-])OCC[N+](C)(C)C [Miltefosine, hexadecylphosphocholine, reference compound]
Flag for Interference, hERG (hERG channel [1]): (no) | half-life [2]: 100 to 200 h | inhibition at 10 µM (hERG channel [3]): -16.9 ± 7.34%

C[N+](C)(C)CCOP(=O)([O-])OCCCCCC1CCCCCCCCCCCCCC1 [Compound 19, 5-cyclopentadecylpentyl (2-(trimethylammonio)ethyl) phosphate]
Degradation non NADPH dependent (%) ([4]; human microsomes): 0% | Human microsomal Metabolic stability (%) ([4]; samples at 0, 5, 15, 30, 45 minutes): 100% | Human plasma Metabolic stability (%) (Human plasma stability): 99.7% | Ames mutagenicity TA98 (values above 15 represent genotoxicity) ([5]; 3.125 μM): 11.0 ± 8.48 | Ames mutagenicity TA98 (values above 15 represent genotoxicity) ([5]; 6.25 μM): 13.0 ± 2.83 | Ames mutagenicity TA98 (values above 15 represent genotoxicity) ([5]; 12.5 μM): 12.5 ± 4.95 | Ames mutagenicity TA98 (values above 15 represent genotoxicity) ([5]; 25 μM): 6.5 ± 3.53 | Ames mutagenicity TA98 (values above 15 represent genotoxicity) ([5]; 50 μM): 11 ± 2.82 | Ames mutagenicity TA98 (values above 15 represent genotoxicity) ([5]; 100 μM): 11.0 ± 1.41 | mutagenicity, TA98 ([5]; up to 100 μM): does not exhibit mutagenicity | times less concentration in plasma than miltefosine ([6]; 72 hours after 20 mg/kg oral gavage): 6.5 times | Kp at 72 h ([6]; bone marrow, read-out: Tissue/Plasma ratio Bone marrow): 0.09 | concentration at 72 h ([6]; bone marrow, 72 hours after 20 mg/kg oral gavage, read-out: Bone marrow): 200 ng/g | Kp at 72 h ([6]; brain, read-out: Tissue/Plasma ratio Brain): 0.248 | concentration at 72 h ([6]; brain, 72 hours after 20 mg/kg oral gavage, read-out: Brain): 540 ± 610 ng/g | Kp at 72 h ([6]; heart, read-out: Tissue/Plasma ratio Heart): 0.55 | concentration at 72 h ([6]; heart, 72 hours after 20 mg/kg oral gavage, read-out: Heart): 1200 ± 900 ng/g | Kp at 72 h ([6]; kidney, read-out: Tissue/Plasma ratio Kidney): 18.9 | concentration at 72 h ([6]; kidney, 72 hours after 20 mg/kg oral gavage, read-out: Kidney): 41100 ± 15800 ng/g | Kp at 72 h ([6]; liver, read-out: Tissue/Plasma ratio Liver): 5.36 | concentration at 72 h ([6]; liver, 72 hours after 20 mg/kg oral gavage, read-out: Liver): 11600 ± 880 ng/g | concentration at 72 h ([6]; plasma, 72 hours after 20 mg/kg oral gavage, read-out: Plasma): 2170 ± 550 ng/mL | Kp at 72 h ([6]; spleen, read-out: Tissue/Plasma ratio Spleen): 1.06 | concentration at 72 h ([6]; spleen, 72 hours after 20 mg/kg oral gavage, read-out: Spleen): 2310 ± 710 ng/g | parasites in the bone marrow [7]: under the detection limit
